Counter-ions that a name gives are not always drawn.
Experiments:
[1] = Pharmacokinetic assay in adult female SD rats (30 mg/kg oral); format: in vivo
[2] = test system: Ba/F3-JAK2V617F tumor; test: Efficacy in mouse subcutaneous xenograft tumor model; format: in vivo, Balb/c nude mice; conditions: for TGI (%) 3 d: day 3; for TGI (%) 7 d: day 7; for TGI (%) 10 d: day 10; for TGI (%) 14 d: day 14
Procedure: 3. Assay for Efficacy in Mouse Subcutaneous Xenograft Tumor Model SPF grade Balb/c nude mice are female and 5-6 weeks old. 0.1 mL of the suspension of Ba/F3-JAK2V617F cells in serum-free culture medium (containing 1×10^7 cells, 50% MatriGel) was subcutaneously injected into right flank of each mouse. When the average tumor volume reached about 500 mm^3, the tumor-bearing mice were sacrificed. The tumor tissues were aseptically picked up, and cut into small pieces, which were subcutaneously implanted into both flanks of Balb/c nude mice. When the average tumor volume reached about 100 mm^3, each mouse was marked according to serial numbers, and their tumor sizes and body weights were measured, respectively. These mice were randomly allocated from small to large in terms of tumor volume, and each group of animals was appropriately adjusted to make the average body weights of the groups in a same level. […] The administration was started on the day of allocation, twice per day for 14 days. During the administration, the tumor volumes and body weights were measured twice per week. The mice were sacrificed at the end of the experiment, and the spleen was isolated and weighted. During the experiment, the maximum long diameter (L) and the maximum transverse diameter in the vertical direction (W) of the tumor were measured to calculate the tumor volume (V) according to V (mm^3)=L×W^2/2. […] T0 represents the average tumor volume of the treatment group when being allocated; Vt represents the average tumor volume measured every time in the control group; V0 represents the average tumor volume of the control group when being allocated.

[3] = target: JAK2 kinase (wild type, JAK2^WT) (Homo sapiens (Human), UniProt O60674); test: HTRF assay for enzymatic activity (IC50), JAK2 wild type; format: biochemical; conditions: ATP at Km, 120 min, 23 °C
Sequence of JAK2 kinase (wild type, JAK2^WT) (O60674 whole entry): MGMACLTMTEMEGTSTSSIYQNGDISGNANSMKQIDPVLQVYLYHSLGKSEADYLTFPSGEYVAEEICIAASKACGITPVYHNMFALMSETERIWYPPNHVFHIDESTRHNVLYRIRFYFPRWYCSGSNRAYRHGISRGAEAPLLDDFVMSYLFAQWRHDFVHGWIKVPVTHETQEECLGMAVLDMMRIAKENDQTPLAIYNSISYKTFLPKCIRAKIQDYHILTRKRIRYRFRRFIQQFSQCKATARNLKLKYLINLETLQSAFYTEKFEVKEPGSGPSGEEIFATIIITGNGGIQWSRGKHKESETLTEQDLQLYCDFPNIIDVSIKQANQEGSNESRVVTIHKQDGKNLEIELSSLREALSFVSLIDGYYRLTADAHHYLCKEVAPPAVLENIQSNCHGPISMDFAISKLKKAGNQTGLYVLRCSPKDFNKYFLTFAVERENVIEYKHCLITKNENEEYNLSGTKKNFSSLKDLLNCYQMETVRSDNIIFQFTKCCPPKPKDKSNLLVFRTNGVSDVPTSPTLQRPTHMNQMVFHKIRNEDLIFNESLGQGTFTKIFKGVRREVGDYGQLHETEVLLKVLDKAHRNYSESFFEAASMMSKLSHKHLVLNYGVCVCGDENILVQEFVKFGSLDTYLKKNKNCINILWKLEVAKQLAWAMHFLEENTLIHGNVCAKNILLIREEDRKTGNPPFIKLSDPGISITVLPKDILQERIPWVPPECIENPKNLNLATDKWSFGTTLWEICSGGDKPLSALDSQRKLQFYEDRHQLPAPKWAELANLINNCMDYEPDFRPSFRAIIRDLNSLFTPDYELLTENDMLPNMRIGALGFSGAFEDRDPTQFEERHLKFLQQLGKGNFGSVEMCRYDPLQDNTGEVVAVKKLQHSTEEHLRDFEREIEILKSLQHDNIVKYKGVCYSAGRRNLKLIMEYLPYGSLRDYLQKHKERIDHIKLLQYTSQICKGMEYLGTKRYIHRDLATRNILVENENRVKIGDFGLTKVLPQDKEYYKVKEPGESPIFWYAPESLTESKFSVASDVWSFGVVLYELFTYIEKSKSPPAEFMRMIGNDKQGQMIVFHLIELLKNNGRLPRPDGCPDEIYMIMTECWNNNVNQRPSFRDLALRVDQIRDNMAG
Procedure: 1. Assay for Enzymatic Activity (IC50) of Compounds
A testing platform for kinase activity of JAK2 (wild type and V617F mutant type) was established based on Homogeneous Time-Resolved Fluorescence (HTRF) assay, and the activities of the compounds were tested using the platform. The compounds were subjected to three-fold gradient dilutions with 100% DMSO with a starting concentration of 1 mM (11 dilutions in total). 4 μL of each dilution was added to 96 μL of reaction buffer (50 mM HEPES, pH 7.4, 10 mM MgCl2, 1 mM EGTA, 0.01% Tween-20, 0.005% BAS, 2 mM DTT) and mixed homogeneously. […] The mixture was mixed homogeneously by centrifugation. […] The plate was incubated in the incubator for 1 hr, and then the fluorescence values were read on Envision (available from PerkinElmer). […] The enzymatic activity was representd by a ratio of the two readout at the two emission wavelengths. The enzymatic activity for each compound was tested at 11 concentrations, and IC50 values of the compounds were obtained by calculating the data using GraFit6.0 software (Erithacus Software). 2. Assay for cell proliferation activity (IC50) of compounds

[4] = Pharmacokinetic assay in adult beagles (IV 5 mg/kg, PO 10 mg/kg); format: in vivo; conditions: for half-life / AUC(0-inf) / Cmax / Tmax: beagle, dog, plasma; for AUC(0-inf): read-out: AUCINF—obs
Text: Pharmacokinetic Assay in Adult Beagles

[5] = both sexes, IV 5 mg/kg, average
[6] = both sexes, PO 10 mg/kg, average

N#CC[C@H](C1CCCC1)n1cc(-c2ncnc3[nH]ccc23)c(N)n1 [(3R)-3-[3-amino-4-(7H-pyrrolo[2,3-d]pyrimidin-4-yl)-1H-pyrazol-1-yl]-3-cyclopentylpropanenitrile hydrochloride]
half-life ([1]; female, Sprague-Dawley, rat, plasma, po, 30 mg/kg): 1.95 h
AUC(0-inf) ([1]; female, Sprague-Dawley, rat, plasma, po, 30 mg/kg, read-out: AUCINFobs): 5760 ng·h/mL
Cmax ([1]; female, Sprague-Dawley, rat, plasma, po, 30 mg/kg, read-out: Cmax): 2350 ng/mL
Tmax ([1]; female, Sprague-Dawley, rat, plasma, po, 30 mg/kg, read-out: Tmax): 0.33 h
TGI (%) 3 d ([2]; 25 mg/kg PO BID): 45.45%
TGI (%) 7 d ([2]; 25 mg/kg PO BID): 16.85%
TGI (%) 10 d ([2]; 25 mg/kg PO BID): 54.49%
TGI (%) 14 d ([2]; 25 mg/kg PO BID): 40.74%
TGI (%) 3 d ([2]; 50 mg/kg PO BID): 41.77%
TGI (%) 7 d ([2]; 50 mg/kg PO BID): 43.60%
TGI (%) 10 d ([2]; 50 mg/kg PO BID): 65.19%
TGI (%) 14 d ([2]; 50 mg/kg PO BID, hydrochloride): 68.40%
TGI (%) 14 d ([2]; 50 mg/kg PO BID, listed as hydrochloride of the compound of Example 5, hydrochloride): 68.4%
TGI (%) 3 d ([2]; 100 mg/kg PO BID): 91.62%
TGI (%) 7 d ([2]; 100 mg/kg PO BID): 79.76%
TGI (%) 10 d ([2]; 100 mg/kg PO BID): 89.37%
TGI (%) 14 d ([2]; 100 mg/kg PO BID, hydrochloride): 85.76%
TGI (%) 14 d ([2]; 100 mg/kg PO BID, listed as hydrochloride of the compound of Example 5, hydrochloride): 85.8%
inhibitory effect on Ba/F3-JAK2V617F tumor growth ([2]; 25, 50, 100 mg/kg PO BID for 14 days): dose-dependent inhibitory effect

N#CCC(C1CCCC1)n1ncc(-c2ncnc3[nH]ccc23)c1N (centres unmarked) [Example 3, 3-[5-amino-4-(7H-pyrrolo[2,3-d]pyrimidin-4-yl)-1H-pyrazol-1-yl]-3-cyclopentylpropanenitrile]
IC50 [3]: < 20 nM

N#CC[C@H](C1CCCC1)n1cc(-c2ncnc3[nH]ccc23)c(N)n1 [Example 5, (3R)-3-[3-amino-4-(7H-pyrrolo[2,3-d]pyrimidin-4-yl)-1H-pyrazol-1-yl]-3-cyclopentylpropanenitrile]
Cl_obs ([4]; IV 5 mg/kg, average): 8.82 mL/min/kg
Vss_obs ([4]; IV 5 mg/kg, average): 1.974 L/kg
Cl_obs ([4]; IV 5 mg/kg, female): 7.37 mL/min/kg
Vss_obs ([4]; IV 5 mg/kg, female): 1.86 L/kg
Cl_obs ([4]; IV 5 mg/kg, male): 10.3 mL/min/kg
Vss_obs ([4]; IV 5 mg/kg, male): 2.089 L/kg
F ([4]; PO 10 mg/kg, average): 114%
F ([4]; PO 10 mg/kg, female): 119%
F ([4]; PO 10 mg/kg, male): 107%
half-life ([4]; IV 5 mg/kg, female): 3.65 h
AUC(0-inf) ([4]; IV 5 mg/kg, female): 11500 ng·h/mL
half-life ([4]; IV 5 mg/kg, male): 3.64 h
AUC(0-inf) ([4]; IV 5 mg/kg, male): 8190 ng·h/mL
Cmax ([4]; PO 10 mg/kg, female): 3980 ng/mL
Tmax ([4]; PO 10 mg/kg, female): 1.13 h
half-life ([4]; PO 10 mg/kg, female): 3.03 h
AUC(0-inf) ([4]; PO 10 mg/kg, female): 27400 ng·h/mL
Cmax ([4]; PO 10 mg/kg, male): 3830 ng/mL
Tmax ([4]; PO 10 mg/kg, male): 0.25 h
half-life ([4]; PO 10 mg/kg, male): 3.04 h
AUC(0-inf) ([4]; PO 10 mg/kg, male): 17500 ng·h/mL
half-life [4, 5]: 3.64 h
AUC(0-inf) [4, 5]: 9850 ng·h/mL
Cmax [4, 6]: 3900 ng/mL
Tmax [4, 6]: 0.69 h
half-life [4, 6]: 3.03 h
AUC(0-inf) [4, 6]: 22500 ng·h/mL
AUCINFobs [1]: 6316 ng·h/mL
Cmax [1]: 2204 ng/mL
Tmax [1]: 0.58 h
t1/2 [1]: 2.20 h
IC50 [3]: < 20 nM

N#CC[C@@H](C1CCCC1)n1cc(-c2ncnc3[nH]ccc23)c(N)n1 [Example 6, (3S)-3-[3-amino-4-(7H-pyrrolo[2,3-d]pyrimidin-4-yl)-1H-pyrazol-1-yl]-3-cyclopentylpropanenitrile]
IC50 [3]: < 20 nM

CC(=O)Nc1nn(C(CC#N)C2CCCC2)cc1-c1ncnc2[nH]ccc12 (centres unmarked) [Example 9, N-[1-(2-cyano-1-cyclopentylethyl)-4-(7H-pyrrolo[2,3-d]pyrimidin-4-yl)-1H-pyrazol-3-yl]acetamide]
IC50 [3]: < 20 nM

N#CCC(C1CCCC1)n1cc(-c2ncnc3[nH]ccc23)c(NCCN2CCOCC2)n1 (centres unmarked) [Example 11, 3-cyclopentyl-3-[3-(2-morpholinylethylamino)-4-(7H-pyrrolo[2,3-d]pyrimidin-4-yl)-1H-pyrazol-1-yl]propionitrile]
IC50 [3]: < 20 nM

N#CCC(C1CCCC1)n1cc(-c2ncnc3[nH]ccc23)c(NC(=O)CN2CCOCC2)n1 (centres unmarked) [Example 12, N-[1-(2-cyano-1-cyclopentylethyl)-4-(7H-pyrrolo[2,3-d]pyrimidin-4-yl)-1H-pyrazol-3-yl]-2-morpholinylacetamide]
IC50 [3]: < 20 nM

N#CCC(C1CCCC1)n1cc(-c2ncnc3[nH]ccc23)c(NCCC(=O)N2CCOCC2)n1 (centres unmarked) [Example 13, 3-cyclopentyl-3-[3-(3-morpholinyl-3-oxopropylamino)-4-(7H-pyrrolo[2,3-d]pyrimidin-4-yl)-1H-pyrazol-1-yl]propionitrile]
IC50 [3]: < 20 nM

N#CCC(C1CCCC1)n1cc(-c2ncnc3[nH]ccc23)c(NCC(=O)N2CCOCC2)n1 (centres unmarked) [Example 14, 3-cyclopentyl-3-[3-(2-morpholinyl-2-oxoethylamino)-4-(7H-pyrrolo[2,3-d]pyrimidin-4-yl)-1H-pyrazol-1-yl]propionitrile]
IC50 [3]: < 20 nM

CCOC(=O)CCC(=O)Nc1nn(C(CC#N)C2CCCC2)cc1-c1ncnc2[nH]ccc12 (centres unmarked) [Example 15, Ethyl 4-[1-(2-cyano-1-cyclopentylethyl)-4-(7H-pyrrolo[2,3-d]pyrimidin-4-yl)-1H-pyrazol-3-ylamino]-4-oxobutanoate]
IC50 [3]: < 20 nM

N#CCC(C1CCCC1)n1cc(-c2ncnc3[nH]ccc23)c(N2C(=O)CCC2=O)n1 (centres unmarked) [Example 16, 3-cyclopentyl-3-[3-(succinimid-1-yl)-4-(7H-pyrrolo[2,3-d]pyrimidin-4-yl)-1H-pyrazol-1-yl]propionitrile]
IC50 [3]: < 100 nM

N#CCC(C1CCCC1)n1cc(-c2ncnc3[nH]ccc23)c(NC2CC(C(=O)N3CCOCC3)C2)n1 (centres unmarked) [Example 17, 3-[3-(3-morpholin-4-carbonyl)cyclobutylamino-4-(7H-pyrrolo[2,3-d]pyrimidin-4-yl)-1H-pyrazolyl]-3-cyclopentylpropanenitrile]
IC50 [3]: < 20 nM

N#CCC(C1CCCC1)n1cc(-c2ncnc3[nH]cc(Br)c23)c(Br)n1 (centres unmarked) [Example 18, 3-[3-bromo-4-(5-bromo-7H-pyrrolo[2,3-d]pyrimidin-4-yl)-1H-pyrazol-1-yl]-3-cyclopentylpropanenitrile]
IC50 [3]: < 1000 nM

N#CCC(C1CCCC1)n1cc(-c2ncnc3[nH]ccc23)c(Br)n1 (centres unmarked) [Example 19, 3-[3-bromo-4-(7H-pyrrolo[2,3-d]pyrimidin-4-yl)-1H-pyrazol-1-yl]-3-cyclopentylpropanenitrile]
IC50 [3]: < 20 nM

N#CCC(C1CCCC1)n1cc(-c2ncnc3[nH]ccc23)c(C(N)=O)n1 (centres unmarked) [Example 24, 1-(2-cyano-1-cyclopentylethyl)-4-(7H-pyrrolo[2,3-d]pyrimidin-4-yl)-1H-pyrazol-3-formamide]
IC50 [3]: < 20 nM

CNC(=O)c1nn(C(CC#N)C2CCCC2)cc1-c1ncnc2[nH]ccc12 (centres unmarked) [Example 25, 1-(2-cyano-1-cyclopentylethyl)-N-methyl-4-(7H-pyrrolo[2,3-d]pyrimidin-4-yl)-1H-pyrazol-3-formamide]
IC50 [3]: < 20 nM

N#CCC(C1CCCC1)n1cc(-c2ncnc3[nH]ccc23)c(C(=O)NCCN)n1 (centres unmarked) [Example 26, N-(2-aminoethyl)-1-(2-cyano-1-cyclopentylethyl)-4-(7H-pyrrolo[2,3-d]pyrimidin-4-yl)-1H-pyrazol-3-formamide]
IC50 [3]: < 20 nM

N#CCC(C1CCCC1)n1cc(-c2ncnc3[nH]ccc23)c(C#N)n1 (centres unmarked) [Example 27, 1-(2-cyano-1-cyclopentylethyl)-4-(7H-pyrrolo[2,3-d]pyrimidin-4-yl)-1H-pyrazol-3-carbonitrile]
IC50 [3]: < 20 nM

N#CCC(C1CCCC1)n1cc(-c2ncnc3[nH]ccc23)c(CO)n1 (centres unmarked) [Example 28, 3-cyclopentyl-3-[3-(hydroxymethyl)-4-(7H-pyrrolo[2,3-d]pyrimidin-4-yl)-1H-pyrazol-1-yl]propionitrile]
IC50 [3]: < 20 nM

— US10561657B2, “Pyrrolopyrimidine compound” (CENTAURUS BIOPHARMA CO., LTD., priority 2014, dated 2020)
